Measurements as given in PubChem BioAssay (NCI).
Where “and” joins values, the source holds several entries; their conditions need not be identical. Equal entries are not always repeated.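 Cultured in 96-well plates, cells were exposed to test compound for 48 hours across five concentrations. The concentration for 50% growth inhibition is given as GI50. TGI: concentration producing complete growth inhibition.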

Legend:
Test in all cases: NCI tumour cell line growth inhibition, 48 h
ACHN renal = tested on: ACHN renal
HCT-15 colon = tested on: HCT-15 colon
NCI-H226 lung = tested on: NCI-H226 lung
OVCAR-8 ovarian = tested on: OVCAR-8 ovarian
SK-MEL-2 melanoma = tested on: SK-MEL-2 melanoma
SK-OV-3 ovarian = tested on: SK-OV-3 ovarian
T-47D breast = tested on: T-47D breast
TK-10 renal = tested on: TK-10 renal
U251 CNS = tested on: U251 CNS
UACC-257 melanoma = tested on: UACC-257 melanoma

Structure (SMILES) | GI50 (ACHN renal) | TGI (ACHN renal) | GI50 (HCT-15 colon) | TGI (HCT-15 colon) | GI50 (NCI-H226 lung) | TGI (NCI-H226 lung) | GI50 (OVCAR-8 ovarian) | TGI (OVCAR-8 ovarian) | GI50 (SK-MEL-2 melanoma) | TGI (SK-MEL-2 melanoma) | GI50 (SK-OV-3 ovarian) | TGI (SK-OV-3 ovarian) | GI50 (T-47D breast) | TGI (T-47D breast) | GI50 (TK-10 renal) | TGI (TK-10 renal) | GI50 (U251 CNS) | TGI (U251 CNS) | GI50 (UACC-257 melanoma) | TGI (UACC-257 melanoma)
O=C1/C(=C/c2ccc([N+](=O)[O-])s2)Oc2ccccc21 | 0.568 µM | 1.77 µM | 0.246 µM | 0.688 µM | 2.24 µM | 5.75 µM | 0.297 µM | 1.68 µM | 0.945 µM | 3.04 µM | 2.13 µM | 5.19 µM | 0.29 µM | 4.12 µM | 1.68 µM | 3.59 µM | 0.561 µM | 1.82 µM | 1.26 µM | 2.78 µM
CCCCCCCCCCCCOC1C(C(COC2OC(C(O)CN3CCCCC3)C3OC(C)(C)OC23)NC(=O)Nc2ccccc2)OC2OC(C)(C)OC21 (stereo unspecified) | 17.3 µM | 34.5 µM | 8.6 µM | 24.3 µM | 17 µM | 38.1 µM | 15.5 µM | 39.7 µM | 19.6 µM | 41.6 µM | 20.4 µM | 44.1 µM | 14.5 µM | 37.8 µM | 10.2 µM | 26 µM | 9.46 µM | 27.2 µM | 19.3 µM | 38 µM
CS(=O)(=O)OCCN(CCOS(C)(=O)=O)c1ccc(C=Nc2ccc3oc(=O)ccc3c2)cc1 | – | 4.91 µM | – | 37.9 µM | – | 21.9 µM | – | 49.9 µM | – | 37.7 µM | – | 9.92 µM | – | 72.8 µM | – | 9.22 µM | – | 41.9 µM | – | 26.9 µM
O=C(Nc1cccc(C(F)(F)F)c1)c1cccc(NC2=C(Cl)C(=O)N(Cc3ccccc3)C2=O)c1 | 15.8 µM | 85.2 µM | 5.1 µM | > 100 µM | 4.51 µM | 65.5 µM | 15.7 µM | 66.1 µM | 14.6 µM | 40.1 µM | 79.1 µM | > 100 µM | 6.28 µM | 89.9 µM | 19.5 µM | > 100 µM | 6.17 µM | > 100 µM | 12.4 µM | 38.5 µM
CC(C)c1cc(CNc2nc(Nc3cc(C4CC4)[nH]n3)cc(N3CCN(C)CC3)n2)on1 | – | > 10 µM and 6.66 µM | – | > 10 µM and 8.47 µM | 0.363 µM and 0.0576 µM | 4.18 µM and 3.6 µM | 3.27 µM and 0.42 µM | > 10 µM and 14.8 µM | 1.69 µM and 0.646 µM | > 10 µM and 2.29 µM | 0.904 µM and 0.335 µM | 4.45 µM and 5.4 µM | – | > 10 µM and 9.84 µM | 0.53 µM and 0.277 µM | 4.19 µM and 5.52 µM | 3.49 µM and 0.408 µM | > 10 µM and 10.3 µM | – | > 10 µM and 5.53 µM
CCCCSCc1nc2nc(Cl)c(Cl)nc2[nH]1 | – | 71.5 µM | – | 85.5 µM | – | 62.7 µM | – | > 100 µM | – | 43.3 µM | – | 57.2 µM | – | 62.9 µM | – | 73.9 µM | – | 55.6 µM | – | 44.5 µM
CC(=O)NCCCCCCNC(C)=O | – | > 10000 µM | – | > 10000 µM | – | > 10000 µM | – | > 10000 µM | – | > 10000 µM | – | > 10000 µM | – | > 10000 µM | – | > 10000 µM | – | > 10000 µM | – | > 10000 µM
CCn1c(-c2nonc2N)nc2c(C#CC(C)(C)O)nc(O[C@@H](CN)c3ccccc3)cc21 | 0.689 µM | 4.73 µM | 3.1 µM | 24.1 µM | 0.624 µM | 1.57 µM | 0.244 µM | 2.59 µM | 0.188 µM | 0.737 µM | 0.073 µM | 4.57 µM | 0.016 µM | 2.34 µM | 0.164 µM | 1.66 µM | 0.0455 µM | 1.15 µM | 0.611 µM | 1.54 µM
CCCC[P+](c1ccccc1)(c1ccccc1)c1ccccc1 | 29 µM | > 100 µM | > 100 µM | > 100 µM | 5.34 µM | > 100 µM | 2.68 µM | > 100 µM | 3.42 µM | 19.6 µM | 13.4 µM | > 100 µM | 0.628 µM | > 100 µM | 8.29 µM | > 100 µM | 2.34 µM | > 100 µM | 0.61 µM | 7.6 µM
CCCCN(CCCC)CC(C)(C)C(O)c1ccc(OC)c2ccccc12 (stereo unspecified) | 3.96 µM | 16 µM | 3.88 µM | 16.5 µM | 2.42 µM | 9.24 µM | 9.76 µM | 28.8 µM | 5.11 µM | 17.7 µM | 5.29 µM | 28.7 µM | 3.77 µM | 17 µM | 8.02 µM | 24.3 µM | 3.47 µM | 13.4 µM | 6.31 µM | 23.8 µM
O=C(NCCCNC(=O)OCc1ccc2c(Br)cc(Br)c(O)c2n1)OCc1ccc2c(Br)cc(Br)c(O)c2n1 | > 100 µM | > 100 µM | > 100 µM | > 100 µM | > 100 µM | > 100 µM | > 100 µM | > 100 µM | > 100 µM | > 100 µM | > 100 µM | > 100 µM | > 100 µM | > 100 µM | > 100 µM | > 100 µM | > 100 µM | > 100 µM | > 100 µM | > 100 µM
CC1CCC2C(C)C3C(CC4C5CC=C6CC(OC7OC(CO)C(O)C(OC8OC(CO)C(O)C(O)C8O)C7OC7OC(C)C(O)C(O)C7O)CCC6(C)C5CCC43C)N2C1 (stereo unspecified) | > 2.5 µg/mL | 20.3 µM and > 2.5 µg/mL | > 2.5 µg/mL | 33 µM and > 2.5 µg/mL | > 2.5 µg/mL | 44.3 µM and > 2.5 µg/mL | > 2.5 µg/mL | 29.8 µM and > 2.5 µg/mL | > 2.5 µg/mL | 34.8 µM and > 2.5 µg/mL | > 2.5 µg/mL | 29.6 µM and > 2.5 µg/mL | > 2.5 µg/mL | 45 µM and > 2.5 µg/mL | > 2.5 µg/mL | 30.6 µM and > 2.5 µg/mL | > 2.5 µg/mL | 31.1 µM and > 2.5 µg/mL | > 2.5 µg/mL | 33.2 µM and > 2.5 µg/mL
CCOC(=O)CNC(=O)CCCn1c(=O)c2c3ccccc3n(C)c2n2nnc(-c3ccccc3)c12 | 9.24 µM | 33.7 µM | > 50 µM | > 50 µM | 25.1 µM | > 50 µM | 25.2 µM | > 50 µM | 9.46 µM | 29.1 µM | 6.7 µM | 44 µM | 43.9 µM | > 50 µM | 8.71 µM | 20.9 µM | 4.14 µM | 14.6 µM | > 50 µM | > 50 µM
